# Measured values reported in patent publication US9980907B2, “Thermolabile liposome with a controlled release temperature” (Max-Planck-Gesellschaft zur Förderung der Wissenschaften …, priority 2002, dated 2018).
# Experiment: main transition temperature (TM) of phosphatidylcholines
# Type: physicochemical
# Conditions: phosphatidylcholine; acyl chains on positions 1 and 2 of glycero-3-phosphocholine or 1 and 3 of glycero-2-phosphocholine
# Experimental: The abovementioned preferred composition of the liposome according to the invention can be tailor-made for other temperature ranges by choice of components with the main transition temperature suitable in each case. In table 1, the main transition temperatures (TM) of phosphatidylcholines whose main transition temperatures lie in the range from 0 to 80° C. are indicated.
row,TM (main transition temperature) [°C],SMILES
1,23,"CCCCCCCCCCCCCC(=O)OCC(COP(=O)([O-])OCC[N+](C)(C)C)OC(=O)CCCCCCCCCCCCC (stereo not drawn) [1,2-dimyristoyl-]"
2,27,CCCCCCCCCCCCCCCC(=O)OCC(COP(=O)([O-])OCC[N+](C)(C)C)OC(=O)CCCCCCCCCCCCC (stereo not drawn) [1-palmitoyl-2-myristoyl-]
3,5,CCCCCCCC/C=C\CCCCCCCC(=O)OC(COC(=O)CCCCCCCCCCCCCCC)COP(=O)([O-])OCC[N+](C)(C)C (stereo not drawn) [1-palmitoyl-2-oleoyl-]
4,33,CCCCCCCCCCCCCCCCCC(=O)OCC(COP(=O)([O-])OCC[N+](C)(C)C)OC(=O)CCCCCCCCCCCCC (stereo not drawn) [1-stearoyl-2-myristoyl-]

# More lines, now with the values behind:
row,SMILES,TM (main transition temperature) [°C]
1,CCCCCCCC/C=C\CCCCCCCC(=O)OC(COC(=O)CCCCCCCCCCCCCCCCCCCCC)COP(=O)([O-])OCC[N+](C)(C)C (stereo not drawn) [1-behenoyl-2-oleoyl-],14
2,CCCCCCCCCCCCCCCC(=O)OCC(COP(=O)([O-])OCC[N+](C)(C)C)OC(=O)CCCCCCCCCCC (stereo not drawn) [1-palmitoyl-2-lauroyl-],11
3,"CCCCCCCCCCCCCCCC(=O)OC[C@H](COP(=O)([O-])OCC[N+](C)(C)C)OC(=O)CCCCCCCCCCCCCCC [1,2-dipalmitoyl-, 1,2-dipalmitoyl-sn-glycero-3-phosphocholine]",41
4,"CCCCCCCCCCCCCCCCCCCC(=O)OCC(COP(=O)([O-])OCC[N+](C)(C)C)OC(=O)CCCCCCCCCCCCCCCCCCC (stereo not drawn) [1,2-diarachinoyl-]",66
5,CCCCCCCCCCCCCCCCCC(=O)OCC(COP(=O)([O-])OCC[N+](C)(C)C)OC(=O)CCCCCCCCCCC (stereo not drawn) [1-stearoyl-2-lauroyl-],17
6,CCCCCCCC/C=C\CCCCCCCC(=O)OC(COC(=O)CCCCCCCCCCCCCCCCC)COP(=O)([O-])OCC[N+](C)(C)C (stereo not drawn) [1-stearoyl-2-oleoyl-],7
7,"CCCCCCCCCCCCCCCCCCCCCCCC(=O)OCC(COP(=O)([O-])OCC[N+](C)(C)C)OC(=O)CCCCCCCCCCCCCCCCCCCCCCC (stereo not drawn) [1,2-dilignoceroyl-]",80
8,"CCCCCCCCCCCCCCCCCC(=O)OC[C@H](COP(=O)([O-])OCC[N+](C)(C)C)OC(=O)CCCCCCCCCCCCCCCCC [1,2-distearoyl-, 1,2-distearoyl-sn-glycero-3-phosphocholine]",56
